Laboratory results published in patent publication US8961930B2, “Isatin derivatives for use as in vivo imaging agents” (Imperial Innovations Limited, priority 2008, dated 2015).

Tested on: PEO1 xenograft
Experiment: In vivo [^18F]11 biodistribution and PET imaging, PEO1 xenograft
Design: species or system mice
Details: for 60 min biodistribution, Bone / 60 min biodistribution, Kidney / 60 min biodistribution, L. Intestine / 60 min biodistribution, Liver / 60 min biodistribution, Lung / 60 min biodistribution, Muscle / 60 min biodistribution, S. Intestine / 60 min biodistribution, Spleen / 60 min biodistribution, Tumour: PEO1
Text: In vivo tumour models were established by subcutaneous injection of PEO1/4 (10×10^6 cells, with v/v matrigel, BD Biosciences, Oxford, UK), RIF-1 (5×10^5 cells) and LNM35 (1×10^6 cells) on the back of 6-8 weeks old female nu/nu-BALB/c or male C3H/hej mice (Harlan, Bicester, Oxfordshire, UK). Tumour growth was monitored every two days using electronic callipers, and tumour volume estimated using (π/6)×L×W×D (L=length, W=width and D=depth). All animal work was done by licensed investigators in accordance with the United Kingdom's “Guidance on the Operation of Animals (Scientific Procedures) Act 1986” (HMSO, London, United Kingdom, 1990) and in full compliance with government regulations and guidelines on the welfare of animals in experimental neoplasia.
For biodistribution studies, tumour-bearing mice were treated with 10 mg/kg cisplatin or vehicle for 24 h, anesthetized with isofluorane/O2/N2O and injected i.v. in the lateral tail vein with ˜100 μCi [^18F]11 for the indicated time. The different tissues were removed, weighted and placed in counting tubes for immediate Fluorine-18 radioactivity counting.
Tumour-bearing mice treated with Cisplatin (10 mg/kg for 24 h) or vehicle were scanned on a dedicated small animal PET scanner (quad-HIDAC; Oxford Positron Systems, Weston-on-the-Green, United Kingdom). Anesthetized animals were placed within a thermostatically controlled bed and positioned prone within the scanner. The bed was calibrated to provide a mouse rectal temperature of ˜37° C. A bolus injection of [^18F]11 (˜100 μCi) was given intravenously (i.v.) via the tail vein cannula and scanning commenced. Dynamic emission scans were acquired in list-mode format over 60 minutes. The acquired data were then sorted into 0.5-mm sinogram bins and 19 time frames (0.5×0.5×0.5 mm voxels; 4×15, 4×60, and 11×300 seconds) for image reconstruction, which was done by filtered back projection using a two-dimensional Hamming filter (cutoff 0.6). The image data-sets obtained were transferred to a SUN workstation (Ultra 10; SUN Microsystems, Santa Clara, Calif.) and visualized using the Analyze software (version 6.0; Biomedical Imaging Resource, Mayo Clinic, Rochester, Minn.). Cumulative images of the dynamic data composed of 0 to 1 minute after injection and 30 to 60 minutes after injection were used for visualization of radiotracer uptake and to define the regions of interest (ROI). The count densities were averaged for each ROI at each of the 19 time points to obtain a time versus radioactivity curve (TAC) for the ROIs. Tumour TAC was normalized to that of heart at each of the time points to obtain the normalized uptake value (NUV). The [^18F]9 data from […] were used as internal input function for normalizing tumour data. […] FRT is a useful variable in that it indicates the proportion of radiotracer delivered to the tumour that is retained. It therefore normalizes tumor [^18F]9 uptake to delivery.

With O=C1C(=O)N(Cc2cn(CC[18F])nn2)c2ccc(S(=O)(=O)N3CCC[C@H]3COc3ccc(F)cc3F)cc21 [[^18F]11, (S)-1-((1-(2-Fluoroethyl)-1H-[1,2,3]-triazol-4-yl)methyl)-5-(2(2,4-difluorophenoxymethyl)-pyrrolidine-1-sulfonyl)isatin] the “60 min biodistribution, Bone” value (CDDP treated) was 1.51 ± 1.02, the “60 min biodistribution, Bone” value (Control) was 0.64 ± 0.09 and the “PET image: uptake in the tumour” value (CDDP-treated mouse, PEO1 xenograft, 30-60 min) was “significant uptake”. The “60 min biodistribution, Kidney” value (CDDP treated) was 8.53 ± 3.64, the “60 min biodistribution, Kidney” value (Control) was 6.59 ± 1.94 and the “60 min biodistribution, L. Intestine” value (CDDP treated) was 3.24 ± 1.81. For the same compound, the “60 min biodistribution, L. Intestine” value (Control) was 1.81 ± 0.37, the “60 min biodistribution, Liver” value (CDDP treated) was 8.20 ± 2.09 and the “60 min biodistribution, Liver” value (Control) was 9.98 ± 2.51. For the same compound, the “60 min biodistribution, Lung” value (CDDP treated) was 4.90 ± 1.05, the “60 min biodistribution, Lung” value (Control) was 4.25 ± 0.57 and the “60 min biodistribution, Muscle” value (CDDP treated) was 1.34 ± 0.28. For the same compound, the “60 min biodistribution, Muscle” value (Control) was 0.98 ± 0.14, the “uptake in the tumour of CDDP treated vs control mice” value (PEO1 xenografts, 60 min) was “significant increased uptake” and the “60 min biodistribution, S. Intestine” value (CDDP treated) was 9.09 ± 5.82. For the same compound, the “60 min biodistribution, S. Intestine” value (Control) was 4.27 ± 0.78, the “60 min biodistribution, Spleen” value (CDDP treated) was 1.65 ± 0.22 and the “60 min biodistribution, Spleen” value (Control) was 1.19 ± 0.26. The “60 min biodistribution, Tumour” value (CDDP treated) was 2.96 ± 1.25 and the “60 min biodistribution, Tumour” value (Control) was 1.37 ± 0.25.
